This note sets out measurements from US12378250B2, “Tricyclic compound as IRAK4 inhibitor” (KOREA RESEARCH INSTITUTE OF CHEMICAL TECHNOLOGY, priority 2018, dated 2025).

For one test, the target named is T1, IRAK4 enzyme (Homo sapiens, UniProt Q9NWZ3).
T1 sequence (Q9NWZ3 1-460): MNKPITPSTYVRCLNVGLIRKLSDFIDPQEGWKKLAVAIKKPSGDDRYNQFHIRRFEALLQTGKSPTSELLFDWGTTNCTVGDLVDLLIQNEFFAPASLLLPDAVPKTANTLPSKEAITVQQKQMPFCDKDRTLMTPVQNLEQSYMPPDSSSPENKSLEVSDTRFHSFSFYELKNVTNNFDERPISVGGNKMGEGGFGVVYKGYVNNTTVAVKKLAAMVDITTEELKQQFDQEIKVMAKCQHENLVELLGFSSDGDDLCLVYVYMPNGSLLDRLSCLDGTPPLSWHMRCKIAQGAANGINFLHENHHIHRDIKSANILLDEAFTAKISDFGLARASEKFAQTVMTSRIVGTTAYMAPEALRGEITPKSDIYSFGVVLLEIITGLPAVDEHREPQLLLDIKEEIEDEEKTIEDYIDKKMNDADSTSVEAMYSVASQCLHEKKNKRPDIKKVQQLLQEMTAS
Description: IRAK4 enzyme inhibition degree (bead-based kinase assay, peptide substrate BMKC-2, 100 μM ATP). The format is biochemical. To be noted: compound 1 μM. The method in brief:
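IRAK4 (0.4 ng/μl stock) preincubated 10 min with compound, then 6 μM BMKC-2 peptide with 100 μM ATP (mix concentrations) for 60 min at room temperature; EDTA stop. Phospho-Thr antibody with AlphaScreen donor/acceptor beads detected product; % inhibition versus controls, IC50 by non-linear regression.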

The test system of test [1] is TNF-α secretion, peripheral blood mononuclear cells (PBMCs). Nature of the test: Suppression of TNF-α secretion in LPS-treated PBMCs (ELISA). It is filed as cell-based. To be noted: PBMC, 100 ng/ml LPS, 24 hours, read-out: TNF-α, % inhibition degree. In short, it runs like this: (§1)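 PBMCs (1×10^5 cells/well for TNF-α, 2×10^5 for IFN-α) preincubated 30 min with compound, then stimulated with 100 ng/ml LPS for 24 h (TNF-α) or 500 nM ODN2216 for 72 h (IFN-α). Cytokines in supernatants quantified by sandwich ELISA with TMB, absorbance 450/570 nm.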

In test [2] the test system is IFN-α secretion, peripheral blood mononuclear cells (PBMCs). Description: Suppression of IFN-α secretion in ODN2216-treated PBMCs (ELISA). It is filed as cell-based. Particulars: PBMC, 500 nM ODN2216, 72 hours, read-out: IFN-α, % inhibition degree. In short, it runs like this:
as §1

The test system of test [3] is NF-κB promoter, THP1-Lucia™ NF-κB cell line. Description: NF-κB promoter inhibition, THP1-Lucia NF-κB cell line. It is filed as cell-based. Particulars: 100 ng/ml LPS, 24 hours, read-out: NF-κB, % inhibition degree. In short, it runs like this: (§2)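 THP1-Lucia cells (NF-κB line 1×10^4/well, ISG line 2×10^4/well) preincubated with compound for 30 minutes. Stimulation then used 100 ng/ml LPS (NF-κB) or 1 μg/ml Poly(dA:dT)/LyoVec (ISG) for 24 hours. Secreted luciferase in supernatant measured by Quanti-luc luminescence.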

Test [4] relates to ISG promoter, THP1-Lucia™ ISG cell line. Nature of the test: ISG promoter inhibition, THP1-Lucia ISG cell line. The format is cell-based. To be noted: 1 μg/ml Poly(dA:dT)/LyoVec, 24 hours, read-out: ISG, % inhibition degree. In short, it runs like this:
as §2

The test system of test [5] is TNF-α in serum, LPS-induced systemic inflammatory disease. Description: Suppressive effects on LPS-induced systemic inflammatory disease in mice (serum TNF-α). The format is in vivo, C57BL/6 mice. Particulars: doses of 50 and 100 mg/kg, oral, 2 hours prior to LPS 15 mg/kg i.p. On the procedure:
As experimental animals, 8-week-old C57BL/6 (20 to 23 g) mice were supplied from Orient Bio Co., Ltd. (Seongnam, Gyeonggi-do) and used. The mice were acclimatized for 2 weeks or more in an animal room of the Korea Research Institute of Chemical Technology, where temperature (22±1° C.) and humidity (50±10%) were automatically adjusted, and then used for experiments, and allowed to freely ingest water and feed. This animal experiment was performed with the approval of the Animal Care and Use Committee of the Korea Research Institute of Chemical Technology. A systemic inflammatory disease was induced by administering a dose of 15 mg/kg lipopolysaccharide (LPS, Sigma L2880) intraperitoneally to the mice. A test drug was suspended in a 10% Cremophor solution and administered orally 2 hours prior to LPS injection, the mice were anesthetized with isoflurane 1 hour after LPS administration, and blood was collected from the heart. Serum was obtained by centrifuging the collected blood at 13,000 rpm for 15 minutes, store at −20° C., and then taken if needed to measure the content of cytokine (TNF-α) in serum using an ELISA kit manufactured by BD Biosciences. […]

Turning to `COc1cncc(-c2ccc3[nH]c4ncnc(N[C@H]5CC[C@H](N6CCOCC6)CC5)c4c3c2)c1` [Compound 6aad, 6-(5-methoxypyridin-3-yl)-N-(trans-4-morpholinocyclohexyl)-9H-pyrimido[4,5-b]indole-4-amine], the inhibition at 1 µM against IRAK4 enzyme was 100%; in test [1] (1 μM), 105%; in test [2] (1 μM), 104%; in test [3] (1 μM), 78%; in test [4] (1 μM), 79%. The inhibition at 0.1 µM was determined as 42% in test [1] (0.1 μM), 31% in test [2] (0.1 μM), 33% in test [3] (0.1 μM) and 37% in test [4] (0.1 μM). Further, the “suppressive effect on systemic inflammation (serum TNF-α) compared to PF-06650833” value in test [5] is reported as “better suppressive effect than PF-06650833”.
